Laboratory results as given in patent publication US20250042894A1, “PROTEIN TYROSINE PHOSPHATASE INHIBITORS AND METHODS OF USE THEREOF” (Calico Life Sciences LLC, priority 2021, published 2025).
Like-named read-outs stand apart in the source and are kept apart here. Each block holds one compound with its values, some of them ahead of it.

Experiments:
[1] = biological target: T1, His tagged PTPN2 (TC45) protein (Homo sapiens, UniProt P17706); assay: Mobility Shift Assay (MSA) for PTPN2 inhibitors; type: biochemical; settings: for Thiochromane x-fold>potency biochemical: PTPN2 MSA IC50 of chromane comparator over thiochromane
T1 construct: His; made in house
T1 sequence (P17706 1-387 isoform P17706-2): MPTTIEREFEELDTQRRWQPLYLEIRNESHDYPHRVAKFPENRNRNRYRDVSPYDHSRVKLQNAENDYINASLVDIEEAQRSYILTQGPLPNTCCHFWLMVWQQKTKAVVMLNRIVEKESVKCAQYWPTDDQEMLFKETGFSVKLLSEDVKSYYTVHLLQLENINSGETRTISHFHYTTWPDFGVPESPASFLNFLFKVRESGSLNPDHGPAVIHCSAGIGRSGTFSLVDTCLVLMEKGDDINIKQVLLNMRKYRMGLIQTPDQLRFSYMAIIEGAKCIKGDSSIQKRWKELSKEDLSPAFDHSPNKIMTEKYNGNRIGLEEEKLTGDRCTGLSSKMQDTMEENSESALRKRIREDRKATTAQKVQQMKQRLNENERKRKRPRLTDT
Experimental: Example 43: Mobility Shift Assay (MSA) Used to Determine Potency of PTPN2 Inhibitors
Compound activity was determined using in house His tagged PTPN2 (TC45) protein (SEQ ID NO: 1) in an in vitro enzymatic reaction. The enzymatic assay used to determine activity was a mobility shift assay using a LabChip EZ Reader by Caliper Life Sciences. The enzymatic reaction was carried out in assay buffer (50 mM HEPES pH 7.5, 1 mM EGTA, 10 mM EDTA, 0.01% Tween® 20, and 2 mM DTT). The compounds were dispensed on a white 384 well ProxiPlate™ (PerkinElmer Catalog #6008289) plate using the Labcyte Echo at varying concentrations (12 point, 1:3 dilution). The enzyme (at 0.5 nM) was incubated with compound for 10 minutes at room temperature. Thereafter, the substrate (phosphorylated insulin receptor probe sequence: ((OG488)-(NH—CH2—CH2—O—CH2—CH2—O—CH2—CO)-T-R-D-I—(PY)-E-T-D-Y—Y—R—K—K—NH2) (SEQ ID NO: 2) was added at 2 μM to the plates and incubated for another 10 minutes at room temperature. Finally, a quench solution (water and 4-bromo-3-(2-oxo-2-propoxyethoxy)-5-(3-{[1-(phenylmethanesulfonyl)piperidin-4-yl]amino}phenyl)thiophene-2-carboxylic acid) was added to the plates, which were then run on the EZ Reader (excitation 488 nm, emission 530 nm) to measure % conversion (the amount of phosphorylated substrate which was de-phosphorylated by PTPN2). […] The % inhibition was then used to calculate the IC50 values.

[2] = system: IFNγ-induced STAT1 phosphorylation (pSTAT1) in B16F10 cells; assay: B16F10 Phospho-STAT1 HTRF proximal pharmacodynamic (PD) assay; type: cell-based, murine; settings: for EC50: B16-F10; for Thiochromane x-fold>potency cellular: pSTAT1 EC50 of chromane comparator over thiochromane
Experimental: Example 45: B16F10 (Murine Melanoma Cells) Phospho-STAT1 HTRF Proximal Pharmacodynamic (PD) Assay
B16F10 cells were grown and maintained in high glucose DMEM (Gibco, Catalog #11965-092, Dun Laoghaire Co Dublin) supplemented with 10% fetal bovine serum (Gibco, Catalog #10082-139, Dun Laoghaire Co Dublin). The cells were pelleted and resuspended in high glucose DMEM without phenol red (Gibco, Catalog #11054-020, Dun Laoghaire Co Dublin), supplemented with 10% fetal bovine serum and plated in a 384 well Corning plate (product #3765, Corning, NY) at 11,000 cells per well in a volume of 20 μL. The cells were dosed with the compounds of interest using an Echo Liquid Handler (Beckman Coulter, Brea, CA) at 50 μM top dose with 3-fold dilutions down to 0.002679 μM for a 10-point dose response. The plate was incubated for 3 hours at 37° C. and subsequently treated with recombinant mouse IFNγ (R&D Systems, Catalog #485-MI, Minneapolis, MN; 100 nM final concentration) for 10 minutes at 37° C. to induce STAT1 phosphorylation followed by 3.3 μM staurosporine treatment for 1 hour at 37° C. to terminate phosphorylation. Media was then aspirated and 20 μL of 1× lysis buffer/blocking reagent (Cisbio Phospho-STAT1 kit, part #63ADK026PEH, Bedford, MA) was added. The plate was placed on a plate shaker for 30 minutes at room temperature, sealed, and stored at −80° C. until needed. To thaw, the plate was placed on shaker at room temperature until completely thawed while the antibody master mix was made (1:40 Phospho-STAT1 Eu Cryptate antibody, 1:40 Phospho-STAT1 d2 antibody, with the detection buffer; Cisbio Phospho-STAT1 kit, part #63ADK026PEH, Bedford, MA). The antibody master mix was then dispensed at 4 μL per well into a 384 ProxiPlate Plus (PerkinElmer, part #6008289, Waltham, MA) and 16 μL of lysate was added from the Corning plate to the Proxiplate using a VIAFLO 384 (INTEGRA). The plate was incubated for 3 hours at room temperature and read on an EnVision® (Perkin Elmer) plate reader with laser excitation at 335 nm and emission at 665 nm. Dotmatics Studies (Bishop's Stortford, UK) was utilized to generate all dose-response curves and calculate EC50s and are shown in Table 2.

[3] = biological target: T2, His tagged full-length PTPN1 protein (Homo sapiens, UniProt P18031); assay: Mobility Shift Assay (MSA) for PTPN1 inhibitors; type: biochemical; settings: enzyme 0.5 nM, substrate 2 μM, 10 minutes preincubation at room temperature
T2 construct: His; made in house
T2 sequence (P18031 1-435): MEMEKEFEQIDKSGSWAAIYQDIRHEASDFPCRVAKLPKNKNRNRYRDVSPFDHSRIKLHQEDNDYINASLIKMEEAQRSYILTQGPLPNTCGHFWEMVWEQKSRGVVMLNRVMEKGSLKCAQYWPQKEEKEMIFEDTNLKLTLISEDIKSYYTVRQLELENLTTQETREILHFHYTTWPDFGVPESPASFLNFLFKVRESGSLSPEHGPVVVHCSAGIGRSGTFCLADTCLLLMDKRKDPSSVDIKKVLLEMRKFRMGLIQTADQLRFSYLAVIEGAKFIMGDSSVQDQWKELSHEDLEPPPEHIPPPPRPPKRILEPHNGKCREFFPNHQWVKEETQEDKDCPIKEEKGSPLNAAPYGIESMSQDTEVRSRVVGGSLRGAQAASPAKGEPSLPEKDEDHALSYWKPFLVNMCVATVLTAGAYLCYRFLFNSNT
Experimental: Example 44: Mobility Shift Assay (MSA) Used to Determine Potency of PTPN1 Inhibitors
Compound activity was determined using in house His tagged full-length PTPN1 protein (SEQ ID NO: 3) in an in vitro enzymatic reaction. The enzymatic assay used to determine activity is a mobility shift assay using a LabChip EZ Reader by Caliper Life Sciences. The enzymatic reaction was carried out in assay buffer (50 mM HEPES pH 7.5, 1 mM EGTA, 10 mM EDTA, 0.010% Tween® 20, and 2 mM DTT). The compounds were dispensed on a white 384 well ProxiPlate™ (PerkinElmer Cat #6008289) plate using a Labcyte Echo® liquid handler at varying concentrations (12 point, 1:3 dilution). The enzyme (at 0.5 nM) was incubated with compound for 10 minutes at room temperature. Thereafter, the substrate (phosphorylated insulin receptor probe sequence: ((OG488)-(NH—CH2—CH2—O—CH2—CH2—O—CH2—CO)-T-R-D-I—(PY)-E-T-D-Y—Y—R—K—K—NH2) (SEQ ID NO: 2) was added at 2 μM to the plates and incubated for another 10 minutes at room temperature. Finally, a quench solution (water and 4-bromo-3-(2-oxo-2-propoxyethoxy)-5-(3-{[1-(phenylmethanesulfonyl)piperidin-4-yl]amino}phenyl)thiophene-2-carboxylic acid) was added to the plates, which were then run on the EZ Reader (excitation 488 nm, emission 530 nm) to measure % conversion (the amount of phosphorylated substrate which was de-phosphorylated by PTPN1). […] The % inhibition was then used to calculate the IC50 values.

[4] = enzyme 0.5 nM, substrate 2 μM, 10 minutes preincubation at room temperature
[5] = Table 2, 3 hours compound, then mouse IFNγ 100 nM 10 minutes, top dose 50 μM, read-out: B16F10 IFNγ Induced pSTAT1 EC50
[6] = Mus musculus, Table 3, B16F10 cells, IFNγ-induced, thiochromanes (X = S) and chromane comparators (X = O), read-out: pSTAT1 EC50
[7] = Table 3, thiochromanes (X = S) and chromane comparators (X = O)

- EC50 [2, 5]: 1480 nM
- EC50 [2, 6]: 1480 nM
- IC50 [3]: 10 to 100 nM
Structure (SMILES): O=C1CN(c2c(O)cc3c(c2F)C[C@H](NCC2C4CCCC42)CS3)S(=O)(=O)N1 (mixture of isomers) [Compound 138, 5-[(3S)-3-({[(1RS,5SR)-bicyclo[3.1.0]hexan-6-yl]methyl}amino)-5-fluoro-7-hydroxy-3,4-dihydro-2H-1-benzothiopyran-6-yl]-1λ^6,2,5-thiadiazolidine-1,1,3-trione]
- Thiochromane x-fold>potency biochemical ([1]; Table 3): 2.0
- IC50 [1, 4]: 10 to 100 nM
- Thiochromane x-fold>potency cellular ([2]; Table 3): >33.8

- EC50 [2, 5]: 164 nM
- IC50 [3]: < 10 nM
Structure (SMILES): O=C1CN(c2c(O)cc3c(c2F)C[C@H](NCCCC(F)F)CS3)S(=O)(=O)N1 [Compound 100, 5-{(3S)-3-[(4,4-difluorobutyl)amino]-5-fluoro-7-hydroxy-3,4-dihydro-2H-1-benzothiopyran-6-yl}-1λ^6,2,5-thiadiazolidine-1,1,3-trione]
- Thiochromane x-fold>potency biochemical ([1]; Table 3): 3.4
- IC50 [1, 7]: 2 nM
- IC50 [1, 4]: < 10 nM

- IC50 [3]: > 100 nM
Structure (SMILES): CC(C)(C)OC(=O)N[C@@H]1CSc2cc(O)c(N3CC(=O)NS3(=O)=O)c(F)c2C1 [Compound 101, tert-butyl [(3S)-5-fluoro-7-hydroxy-6-(1,1,4-trioxo-1λ^6,2,5-thiadiazolidin-2-yl)-3,4-dihydro-2H-1-benzothiopyran-3-yl]carbamate]

- IC50 [3]: > 100 nM
Structure (SMILES): N[C@@H]1CSc2cc(O)c(N3CC(=O)NS3(=O)=O)c(F)c2C1 [Compound 102, 5-[(3S)-3-amino-5-fluoro-7-hydroxy-3,4-dihydro-2H-1-benzothiopyran-6-yl]-1λ^6,2,5-thiadiazolidine-1,1,3-trione]
- Thiochromane x-fold>potency biochemical ([1]; Table 3): 1.7
- IC50 [1, 7]: 31 nM
- IC50 [1, 4]: 10 to 100 nM

- EC50 [2, 5]: 528 nM
- EC50 [2, 6]: 528 nM
- IC50 [3]: < 10 nM
Structure (SMILES): CC(C)CCN[C@@H]1CSc2cc(O)c(N3CC(=O)NS3(=O)=O)c(F)c2C1 [Compound 103, 5-{(3S)-5-fluoro-7-hydroxy-3-[(3-methylbutyl)amino]-3,4-dihydro-2H-1-benzothiopyran-6-yl}-1λ^6,2,5-thiadiazolidine-1,1,3-trione]
- Thiochromane x-fold>potency biochemical ([1]; Table 3): 11.9
- IC50 [1, 7]: 1 nM
- IC50 [1, 4]: < 10 nM
- Thiochromane x-fold>potency cellular ([2]; Table 3): 13.2

- EC50 [2, 5]: 3350 nM
- IC50 [3]: 10 to 100 nM
Structure (SMILES): O=C1CN(c2c(O)cc3c(c2F)C[C@H](NCCC2(CO)CCC2)CS3)S(=O)(=O)N1 [Compound 104, 5-[(3S)-5-fluoro-7-hydroxy-3-({2-[1-(hydroxymethyl)cyclobutyl]ethyl}amino)-3,4-dihydro-2H-1-benzothiopyran-6-yl]-1λ^6,2,5-thiadiazolidine-1,1,3-trione]
- IC50 [1, 4]: < 10 nM

- EC50 [2, 6]: 5750 nM
Structure (SMILES): N[C@@H]1COc2cc(O)c(N3CC(=O)NS3(=O)=O)c(F)c2C1 [Compound C-2, reference compound]
- IC50 [1, 7]: 52 nM

- EC50 [2, 6]: 6960 nM
Structure (SMILES): CC(C)CCN[C@@H]1COc2cc(O)c(N3CC(=O)NS3(=O)=O)c(F)c2C1 [Compound C-3, reference compound]
- IC50 [1, 7]: 15 nM

- EC50 [2, 6]: 32200 nM
Structure (SMILES): O=C1CN(c2c(O)cc3c(c2F)CC(NCCC2CCOCC2)CO3)S(=O)(=O)N1 (stereo not drawn) [Compound C-4, reference compound]

- EC50 [2, 6]: 22600 nM
Structure (SMILES): O=C1CN(c2c(O)cc3c(c2F)CC(NCCC2CCOC2)CO3)S(=O)(=O)N1 (stereo not drawn) [Compound C-5, reference compound]

- EC50 [2, 6]: > 50000 nM
Structure (SMILES): O=C1CN(c2c(O)cc3c(c2F)CC(NCC2(CF)CC2)CO3)S(=O)(=O)N1 (stereo not drawn) [Compound C-6, reference compound]

- EC50 [2, 6]: > 50000 nM
Structure (SMILES): O=C1CN(c2c(O)cc3c(c2F)CC(NCC2CC(c4ccccc4)C2)CO3)S(=O)(=O)N1 (stereo not drawn) [Compound C-7, reference compound]

- EC50 [2, 6]: > 50000 nM
Structure (SMILES): O=C1CN(c2c(O)cc3c(c2F)CC(NCCCc2ccccc2)CO3)S(=O)(=O)N1 (stereo not drawn) [Compound C-8, reference compound]

- EC50 [2, 6]: > 50000 nM
Structure (SMILES): O=C1CN(c2c(O)cc3c(c2F)CC(NCC2C4CCCC42)CO3)S(=O)(=O)N1 (stereo not drawn) [Compound C-10, reference compound]

- EC50 [2, 6]: > 50000 nM
Structure (SMILES): O=C1CN(c2c(O)cc3c(c2F)CC(NCC2CCC(C(F)(F)F)CC2)CO3)S(=O)(=O)N1 (stereo not drawn) [Compound C-11, reference compound]

- EC50 [2, 6]: > 50000 nM
Structure (SMILES): CC1=C(CCNC2COc3cc(O)c(N4CC(=O)NS4(=O)=O)c(F)c3C2)C(C)(C)CCC1 (stereo not drawn) [Compound C-12, reference compound]

- EC50 [2, 6]: > 50000 nM
Structure (SMILES): CC(C)(C)OC(=O)N1CCC(CNC2COc3cc(O)c(N4CC(=O)NS4(=O)=O)c(F)c3C2)CC1 (stereo not drawn) [Compound C-13, reference compound]
